# Experimental data: patent US8455469B2, “Use of norgestimate as a selective inhibitor of TRPC3, TRPC6 and TRPC7 ion channels” (Sanofi, priority 2007, dated 2013)
# Molecular target: T1, TRPC5 (Homo sapiens, UniProt Q9UL62)
# T1 construct: expressed in transfected cells; host or cells: HEK293 FITR (inducible expression)
# T1 sequence (Q9UL62 1-973): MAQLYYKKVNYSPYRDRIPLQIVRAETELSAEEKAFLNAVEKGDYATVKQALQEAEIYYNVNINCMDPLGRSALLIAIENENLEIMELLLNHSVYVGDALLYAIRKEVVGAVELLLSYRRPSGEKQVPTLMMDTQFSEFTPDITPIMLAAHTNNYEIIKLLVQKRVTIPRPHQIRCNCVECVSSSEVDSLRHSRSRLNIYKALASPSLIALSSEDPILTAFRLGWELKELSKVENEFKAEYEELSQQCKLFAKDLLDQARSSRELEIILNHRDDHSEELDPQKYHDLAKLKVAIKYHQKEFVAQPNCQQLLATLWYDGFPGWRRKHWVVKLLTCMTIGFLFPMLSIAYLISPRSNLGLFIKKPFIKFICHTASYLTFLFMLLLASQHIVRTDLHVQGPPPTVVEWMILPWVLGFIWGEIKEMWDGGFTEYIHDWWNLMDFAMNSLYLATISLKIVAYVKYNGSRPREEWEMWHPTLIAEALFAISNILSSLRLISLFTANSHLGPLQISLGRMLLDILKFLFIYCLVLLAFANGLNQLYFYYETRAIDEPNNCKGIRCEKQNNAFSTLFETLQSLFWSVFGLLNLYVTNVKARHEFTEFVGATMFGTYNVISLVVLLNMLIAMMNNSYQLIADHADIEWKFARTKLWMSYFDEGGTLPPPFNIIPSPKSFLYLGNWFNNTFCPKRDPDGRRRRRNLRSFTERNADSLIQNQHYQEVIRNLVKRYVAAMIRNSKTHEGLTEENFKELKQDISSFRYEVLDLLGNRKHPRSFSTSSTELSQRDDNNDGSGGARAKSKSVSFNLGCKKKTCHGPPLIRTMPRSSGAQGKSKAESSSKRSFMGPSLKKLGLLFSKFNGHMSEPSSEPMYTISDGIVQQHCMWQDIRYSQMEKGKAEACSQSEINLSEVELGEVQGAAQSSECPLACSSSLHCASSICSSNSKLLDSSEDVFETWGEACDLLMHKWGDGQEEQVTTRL
# Assay: Whole-cell patch clamp, AlF4- activated TRPC5 HEK293 cells
# Assay type: cell-based
# Conditions: 10 μM, -70 mV, n=20
# Experimental: Channels were indirectly excited with the same stimulus for better comparability of the norgestimate effect. Aluminium tetrafluoride (AIF^4−) applied intracellularly via the patch pipette activates G-proteins by mimicking GTP (Sternweis & Gilman, 1982; Bigay et al., 1987).
# Since these channels are potentiated by micromolar La^3+ concentrations (Jung et al., 2003), 2-aminoethoxydiphenyl borate (2-APB), a characterized TRPC5 blocker (Xu et al., 2005) was used instead.
# Effect of 10 μM norgestimate (NG) on whole-cell currents evoked by AlF4^− infusion into induced TRPC6— (A) and TRPC5 HEK 293 (B) cells. Whole cell currents recorded at −70 mV (left panels) and the corresponding current-voltage (I-V) relationships are shown (right panels). […] The curves were obtained during voltage ramps from −100 to +80 mV. (C) Statistical analysis of the norgestimate effect on TRPC5— and TRPC6-mediated currents.
smiles,measurement,value
"C#C[C@]1(OC(C)=O)CC[C@H]2[C@@H]3CCC4=C/C(=N/O)CC[C@@H]4[C@H]3CC[C@@]21CC [norgestimate, D-17β-acetoxy-B-ethyl-17α ethinyl-gon-4-en-3-one oxime]",TRPC5 current blocked,25.9±5.7%
